What was measured:
Format in all cases: cell-based, human
HEXA = test: DNA microarray, HEXA expression in fibroblasts exposed to genistein; conditions: for HEXA fold change Average: 48 h vs DMSO
Experimental: (§1) The experiments were conducted to characterise the transcriptomic profile of human fibroblast cells exposed to genistein, and in particular to determine the expression of genes encoding lysosomal enzymes involved in metabolism (i.e. synthesis and degradation) of organic substances. The absence or deficiency of these enzymes' activity is responsible for occurrence of various lysosomal storage diseases (LSD) (including MPS). The tested hypothesis assumed that genistein influences the expression of many genes, among which there are genes coding for enzymes required in metabolism of compounds, which are pathologically stored in LSD. The results provide important information regarding genistein action on the molecular level within the range of gene expression modulation by this substance. The experiment was conducted in biological quintuplicates. Human dermal fibroblasts (HDFa) were exposed in vitro for 1, 24 or 48 hours to: 30, 60 or 100 μM of genistein; 0.05% DMSO (K1); or were untreated (control cells) (K2), and total RNA was isolated and analysed.
(§2) Fibroblast cells were grown in Dulbecco (DMEM) medium supplemented with 10% fetal bovine serum (FBS) with the addition of 1% antibiotics and anti-fungal agents at 37° C. in humidified atmosphere of 5% CO2, until the required confluency was obtained.
(§3) To determine the effect of tested compound on the transcriptom of the fibroblast cells, the growth medium was replaced with fresh medium, either non-supplemented (0.05% DMSO), or containing genistein (30, 60 or 100 μM, in 0.05% DMSO). The exposure was done for 1, 24 or 48 hours.
(§4) Total RNA was isolated from fibroblasts using High Pure RNA Isolation Kit according to the protocol and then it was quantitatively evaluated using Quant-It™ RiboGreen® Assay Kit.
(§5) Biotinylated cRNA was prepared using Ambion Total PrepAmp Kit for Illumina arrays.
(§6) Standard hybridization and quantitative image analysis procedures—Illumina hybridization protocol and Illumina scanning protocol, were used.
(§7) Processing of the results was done during data definition, including: background correction (using background subtraction method), normalization (using quantile normalization algorithm with Illumina GenomeStudio software package: gene expression module version 1.9.0) and summarization (using method, which sums the values of signal intensities from a set of probes).

AGA = test: DNA microarray, AGA expression in fibroblasts exposed to genistein; conditions: for AGA fold change Average: 48 h vs DMSO
Experimental: as §1, §2, §3, §4, §5, §6, §7

ST3GAL6 = test: DNA microarray, ST3GAL6 expression in fibroblasts exposed to genistein
Experimental: as §1, §2, §3, §4, §5, §6, §7

CTSA = test: DNA microarray, CTSA expression in fibroblasts exposed to genistein; conditions: for CTSA fold change Average: 48 h vs DMSO
Experimental: as §1, §2, §3, §4, §5, §6, §7

NEU1 = test: DNA microarray, NEU1 expression in fibroblasts exposed to genistein; conditions: for NEU1 fold change Average: 48 h vs DMSO
Experimental: as §1, §2, §3, §4, §5, §6, §7

MAN2B1 = test: DNA microarray, MAN2B1 expression in fibroblasts exposed to genistein; conditions: for MAN2B1 fold change Average: 48 h vs DMSO
Experimental: as §1, §2, §3, §4, §5, §6, §7

IDUA = test: DNA microarray, IDUA expression in fibroblasts exposed to genistein; conditions: for IDUA fold change Average: 48 h vs DMSO
Experimental: as §1, §2, §3, §4, §5, §6, §7

NAGLU = test: DNA microarray, NAGLU expression in fibroblasts exposed to genistein
Experimental: as §1, §2, §3, §4, §5, §6, §7

O=c1c(-c2ccc(O)cc2)coc2cc(O)cc(O)c12 [genistein, 4′,5,7-trihydroxy-3-phenylchromen-4-one]
HEXA fold change Average 1h30/1hK1 (HEXA; 30 μM, 1 h vs 0.05% DMSO): 1.2226 fold change | HEXA fold change Average (HEXA; 30 μM): 1.0817 fold change | HEXA fold change Average 1h60/1hK1 (HEXA; 60 μM, 1 h vs 0.05% DMSO): 1.174 fold change | HEXA fold change Average (HEXA; 60 μM): 1.474 fold change | HEXA fold change Average 1h100/1hK1 (HEXA; 100 μM, 1 h vs 0.05% DMSO): 1.042 fold change | HEXA fold change Average (HEXA; 100 μM): 1.621 fold change | AGA fold change Average 1h30/1hK1 (AGA; 30 μM, 1 h vs 0.05% DMSO): 1.0395 fold change | AGA fold change Average (AGA; 30 μM): 1.3732 fold change | AGA fold change Average 1h60/1hK1 (AGA; 60 μM, 1 h vs 0.05% DMSO): 0.9753 fold change | AGA fold change Average (AGA; 60 μM): 1.864 fold change | AGA fold change Average 1h100/1hK1 (AGA; 100 μM, 1 h vs 0.05% DMSO): 0.9749 fold change | AGA fold change Average (AGA; 100 μM): 2.33 fold change | ST3GAL6 fold change Average 1h30/1hK1 (ST3GAL6; 30 μM, 1 h vs 0.05% DMSO): 1.234 fold change | ST3GAL6 fold change Average 24h30/24hK1 (ST3GAL6; 30 μM, 24 h vs 0.05% DMSO): 0.9878 fold change | ST3GAL6 fold change Average 48h30/48hK1 (ST3GAL6; 30 μM, 48 h vs 0.05% DMSO): 1.015 fold change | ST3GAL6 fold change Average 1h60/1hK1 (ST3GAL6; 60 μM, 1 h vs 0.05% DMSO): 1.072 fold change | ST3GAL6 fold change Average 1h100/1hK1 (ST3GAL6; 100 μM, 1 h vs 0.05% DMSO): 1.064 fold change | ST3GAL6 fold change Average 24h100/24hK1 (ST3GAL6; 100 μM, 24 h vs 0.05% DMSO): 0.7371 fold change | ST3GAL6 fold change Average 48h100/48hK1 (ST3GAL6; 100 μM, 48 h vs 0.05% DMSO): 0.7409 fold change | CTSA fold change Average 1h30/1hK1 (CTSA; 30 μM, 1 h vs 0.05% DMSO): 1.0199 fold change | CTSA fold change Average (CTSA; 30 μM): 1.3019 fold change | CTSA fold change Average 1h60/1hK1 (CTSA; 60 μM, 1 h vs 0.05% DMSO): 0.9816 fold change | CTSA fold change Average (CTSA; 60 μM): 1.637 fold change | CTSA fold change Average 1h100/1hK1 (CTSA; 100 μM, 1 h vs 0.05% DMSO): 0.9643 fold change | CTSA fold change Average (CTSA; 100 μM): 1.571 fold change | NEU1 fold change Average 1h30/1hK1 (NEU1; 30 μM, 1 h vs 0.05% DMSO): 1.2206 fold change | NEU1 fold change Average (NEU1; 30 μM): 1.6536 fold change | NEU1 fold change Average 1h60/1hK1 (NEU1; 60 μM, 1 h vs 0.05% DMSO): 1.323 fold change | NEU1 fold change Average (NEU1; 60 μM): 2.259 fold change | NEU1 fold change Average 1h100/1hK1 (NEU1; 100 μM, 1 h vs 0.05% DMSO): 1.353 fold change | NEU1 fold change Average (NEU1; 100 μM): 2.492 fold change | MAN2B1 fold change Average 1h30/1hK1 (MAN2B1; 30 μM, 1 h vs 0.05% DMSO): 1.0342 fold change | MAN2B1 fold change Average (MAN2B1; 30 μM): 1.036 fold change | MAN2B1 fold change Average 1h60/1hK1 (MAN2B1; 60 μM, 1 h vs 0.05% DMSO): 0.8507 fold change | MAN2B1 fold change Average (MAN2B1; 60 μM): 1.586 fold change | MAN2B1 fold change Average 1h100/1hK1 (MAN2B1; 100 μM, 1 h vs 0.05% DMSO): 0.9864 fold change | MAN2B1 fold change Average (MAN2B1; 100 μM): 1.924 fold change | IDUA fold change Average 1h30/1hK1 (IDUA; 30 μM, 1 h vs 0.05% DMSO): 0.8853 fold change | IDUA fold change Average (IDUA; 30 μM): 1.1407 fold change | IDUA fold change Average 1h60/1hK1 (IDUA; 60 μM, 1 h vs 0.05% DMSO): 0.9788 fold change | IDUA fold change Average (IDUA; 60 μM): 1.212 fold change | IDUA fold change Average 1h100/1hK1 (IDUA; 100 μM, 1 h vs 0.05% DMSO): 0.9034 fold change | IDUA fold change Average (IDUA; 100 μM): 1.309 fold change | NAGLU fold change Average 1h30/1hK1 (NAGLU; 30 μM, 1 h vs 0.05% DMSO): 1.055 fold change | NAGLU fold change Average (NAGLU; 30 μM, 48 h vs DMSO): 1.1022 fold change | NAGLU fold change Average 1h60/1hK1 (NAGLU; 60 μM, 1 h vs 0.05% DMSO): 1.061 fold change
